Measurements from publication PMC10955571 (ACS Omega, 2024).
Where a SMILES comes first, the peptide text is derived from it. The star is where a group is joined. Isobutyryl = CC(C)C(=O)*; Cbz = O=C(OCc1ccccc1)*; OAll = C=CCO*

Key:
[1] = target: BACE-1 (Homo sapiens, UniProt P56817); assay: BACE-1 FRET inhibition assay; type: biochemical
[2] = target: Human AChE (Homo sapiens, UniProt P22303); assay: AChE inhibition, Ellman assay; type: biochemical
[3] = target: Aβ1–42 (Homo sapiens, UniProt P05067); assay: Inhibition of Aβ1–42 self-induced aggregation, Thioflavin-T fluorometric assay; type: biochemical; conditions: read-out: % inhibition of Aβ1–42 aggregation at 10 μM, 10 μM compound
Aβ1–42, sequence (P05067 672-713): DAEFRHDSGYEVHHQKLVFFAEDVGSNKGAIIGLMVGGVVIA

[4] = test system: scopolamine-induced memory impairment in mice; assay: Morris water maze test, scopolamine-induced memory impairment; type: in vivo, Swiss albino mice; conditions: MWM, one animal from each group; for time taken by the animals to reach the platform, after the training (5th day): basal reading before any treatment; for time taken by the animals to reach the platform, after treatment with the test compound/donepezil (11th day): before scopolamine; for time taken by the animals to reach the platform, after treatment with the test compound/donepezil (11th day) / time taken by the animals to reach the platform, after treatment with scopolamine (14th day): compounds 10 mg/kg, donepezil 3 mg/kg; for time taken by the animals to reach the platform, after treatment with scopolamine (14th day): scopolamine 2 mg/kg i.p. days 12-14
[5] = PAMPA-BBB permeability; conditions: for Papp at 5 h, 200 μM: PAMPA, pH 7.4
[6] = Plasma stability assay; type: in vitro ADME

Human AChE, sequence (P22303 32-614): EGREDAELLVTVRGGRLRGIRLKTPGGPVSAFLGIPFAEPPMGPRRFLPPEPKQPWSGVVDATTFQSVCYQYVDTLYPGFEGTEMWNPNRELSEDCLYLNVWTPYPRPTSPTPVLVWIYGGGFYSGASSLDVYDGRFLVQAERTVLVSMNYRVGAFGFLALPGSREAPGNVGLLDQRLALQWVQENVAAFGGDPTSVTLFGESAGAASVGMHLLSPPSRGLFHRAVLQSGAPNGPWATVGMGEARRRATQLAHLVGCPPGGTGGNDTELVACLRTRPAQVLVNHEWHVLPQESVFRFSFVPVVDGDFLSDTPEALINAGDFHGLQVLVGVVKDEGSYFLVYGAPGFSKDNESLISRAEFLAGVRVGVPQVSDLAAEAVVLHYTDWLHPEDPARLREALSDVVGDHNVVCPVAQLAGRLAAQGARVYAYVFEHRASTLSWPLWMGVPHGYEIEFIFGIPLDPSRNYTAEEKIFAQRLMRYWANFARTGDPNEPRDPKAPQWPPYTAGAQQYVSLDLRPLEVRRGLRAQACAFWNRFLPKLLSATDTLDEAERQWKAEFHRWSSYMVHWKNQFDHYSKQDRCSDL
BACE-1, sequence (P56817 46-501): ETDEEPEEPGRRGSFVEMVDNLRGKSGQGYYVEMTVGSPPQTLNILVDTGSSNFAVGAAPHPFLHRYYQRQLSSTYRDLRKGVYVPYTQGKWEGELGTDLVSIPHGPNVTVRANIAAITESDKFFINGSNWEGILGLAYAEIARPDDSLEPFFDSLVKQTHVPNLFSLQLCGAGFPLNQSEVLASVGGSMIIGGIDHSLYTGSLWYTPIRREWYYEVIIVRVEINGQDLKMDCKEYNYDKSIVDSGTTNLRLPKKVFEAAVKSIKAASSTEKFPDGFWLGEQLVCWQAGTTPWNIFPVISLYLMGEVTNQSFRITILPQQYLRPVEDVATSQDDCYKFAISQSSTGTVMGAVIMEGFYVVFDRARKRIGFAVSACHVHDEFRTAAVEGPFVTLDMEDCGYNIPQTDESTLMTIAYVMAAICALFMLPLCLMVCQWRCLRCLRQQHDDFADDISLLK

## COC(=O)[C@H](C)NC(=O)[C@@H]1CCCN1C(=O)CNC(=O)C(C)C [Compound 13, Isobut-Gly-Pro-Ala-OMe] (Isobutyryl-Gly-Pro-Ala-OMe)
[1]
  IC50: 0.2 ± 0.03 µM
[2]
  IC50: 7 ± 1 µM
[3]
  inhibition at 10 µM: 36.3 ± 4.3%

## CC(C)C(=O)NCC(=O)N1CCC[C@H]1C(=O)N[C@@H](C)C(=O)O [Compound 14, Isobut-Gly-Pro-Ala-OH] (Isobutyryl-Gly-Pro-Ala-OH)
[1]
  IC50: 0.6 ± 0.05 µM
[2]
  IC50: 8 ± 1.2 µM

## C=CCOC(=O)[C@H](C)NC(=O)[C@@H]1CCCN1C(=O)CNC(=O)C(C)C [Compound 15, Isobut-Gly-Pro-Ala-O-allyl] (Isobutyryl-Gly-Pro-Ala-OAll)
[1]
  IC50: 0.05 ± 0.001 µM
[2]
  IC50: 0.05 ± 0.01 µM
[3]
  inhibition at 10 µM: > 50%
[4]
  time taken by the animals to reach the platform, after the training (5th day): 11 s
  time taken by the animals to reach the platform, after treatment with the test compound/donepezil (11th day): 11 s
  time taken by the animals to reach the platform, after treatment with scopolamine (14th day): 93 s
[5]
  Papp at 5 h, 200 μM: 1.8 ×10⁻⁶ cm/s

## CC(C)=CCOC(=O)[C@H](C)NC(=O)[C@@H]1CCCN1C(=O)CNC(=O)C(C)C [Compound 16, Isobut-Gly-Pro-Ala-O-dimethylallyl]
[1]
  IC50: 0.2 ± 0.01 µM
[2]
  IC50: 1 ± 0.1 µM

## CC(C)C(=O)NCC(=O)N1CCC[C@H]1C(=O)N[C@@H](C)C(=O)OC/C=C/c1ccccc1 [Compound 17, Isobut-Gly-Pro-Ala-O-Cinnamyl]
[1]
  IC50: 0.1 ± 0.01 µM
[2]
  IC50: 0.9 ± 0.1 µM
[5]
  Papp at 5 h, 200 μM: 3.64 ×10⁻⁶ cm/s

## CC(C)=CCC/C(C)=C/COC(=O)[C@H](C)NC(=O)[C@@H]1CCCN1C(=O)CNC(=O)C(C)C [Compound 18, Isobut-Gly-Pro-Ala-O-Geranyl]
[1]
  IC50: 20 ± 2 µM
[2]
  IC50: 7 ± 1.3 µM
[3]
  inhibition at 10 µM: 12.5 ± 2.1%
[4]
  time taken by the animals to reach the platform, after the training (5th day): 5 s
  time taken by the animals to reach the platform, after treatment with the test compound/donepezil (11th day): 5 s
  time taken by the animals to reach the platform, after treatment with scopolamine (14th day): 71 s
[5]
  Papp at 5 h, 200 μM: 3.17 ×10⁻⁶ cm/s

## COC(=O)[C@H](C)NC(=O)[C@@H]1CCCN1C(=O)CNC(=O)OCc1ccccc1 [Compound 21, Cbz-Gly-Pro-Ala-OMe] (Cbz-Gly-Pro-Ala-OMe)
[1]
  IC50: 30 ± 4.1 µM
[2]
  IC50: 1000 ± 9.5 µM
[2]; Ellman assay, mean ± SEM
  IC50 AChE: millimolar range

## C[C@H](NC(=O)[C@@H]1CCCN1C(=O)CNC(=O)OCc1ccccc1)C(=O)O [Compound 22, Cbz-Gly-Pro-Ala-OH] (Cbz-Gly-Pro-Ala-OH)
[1]
  IC50: 0.3 ± 0.02 µM
[2]
  IC50: 0.1 ± 0.01 µM

## C=CCOC(=O)[C@H](C)NC(=O)[C@@H]1CCCN1C(=O)CNC(=O)OCc1ccccc1 [Compound 23, Cbz-Gly-Pro-Ala-O-Allyl] (Cbz-Gly-Pro-Ala-OAll)
[1]
  IC50: 1 ± 0.2 µM
[2]
  IC50: 0.8 ± 0.1 µM

## CC(C)=CCOC(=O)[C@H](C)NC(=O)[C@@H]1CCCN1C(=O)CNC(=O)OCc1ccccc1 [Compound 24, Cbz-Gly-Pro-Ala-O-dimethylallyl]
[1]
  IC50: 20 ± 2.3 µM
[2]
  IC50: 0.6 ± 0.03 µM

## C[C@H](NC(=O)[C@@H]1CCCN1C(=O)CNC(=O)OCc1ccccc1)C(=O)OC/C=C/c1ccccc1 [Compound 25, Cbz-Gly-Pro-Ala-O-cinnamyl]
[1]
  IC50: 0.02 ± 0.001 µM
[2]
  IC50: 1 ± 0.2 µM
[3]
  inhibition at 10 µM: > 50%
[4]
  time taken by the animals to reach the platform, after the training (5th day): 20 s
  time taken by the animals to reach the platform, after treatment with the test compound/donepezil (11th day): 15 s
  time taken by the animals to reach the platform, after treatment with scopolamine (14th day): 15 s
[6]; 50 μM in plasma pH 7–8, 37 °C, 12 h incubation
  change in the concentration in plasma: ~10%
[6]; 50 μM in plasma, 37 °C
  effect of plasma on the half-life time: no remarkable effect on the half-life time
[5]
  Papp at 5 h, 200 μM: 17.8 ×10⁻⁶ cm/s

## CC(C)=CCC/C(C)=C/COC(=O)[C@H](C)NC(=O)[C@@H]1CCCN1C(=O)CNC(=O)OCc1ccccc1 [Compound 26, Cbz-Gly-Pro-Ala-O-Geranyl]
[1]
  IC50: 0.1 ± 0.01 µM
[2]
  IC50: 0.7 ± 0.1 µM
[3]
  inhibition at 10 µM: 31.8 ± 3.2%
[4]
  time taken by the animals to reach the platform, after the training (5th day): 7 s
  time taken by the animals to reach the platform, after treatment with the test compound/donepezil (11th day): 39 s
  time taken by the animals to reach the platform, after treatment with scopolamine (14th day): 45 s

## COC(=O)[C@H](C)NC(=O)[C@@H]1CCCN1C(=O)CN [Compound 30, NH2-Gly-Pro-Ala-OMe] (H-Gly-Pro-Ala-OMe)
[1]
  IC50: 0.02 ± 0.001 µM
[2]
  IC50: 2 ± 1.1 µM
[3]
  inhibition at 10 µM: 33.7 ± 4.2%
[4]
  time taken by the animals to reach the platform, after the training (5th day): 20 s
  time taken by the animals to reach the platform, after treatment with the test compound/donepezil (11th day): 12 s
  time taken by the animals to reach the platform, after treatment with scopolamine (14th day): 65 s
[5]
  Papp at 5 h, 200 μM: 8.98 ×10⁻⁶ cm/s

## C(=C\n1nncc1COc1ccc2ccccc2c1-c1c(OCc2cnnn2/C=C/Cc2ccccc2)ccc2ccccc12)/Cc1ccccc1 [Compound 33, 2,2′-Bis((1-((E)-3-phenylprop-1-en-1-yl)-1H-1,2,3-triazol-5-yl)methoxy)-1,1′-binaphthalene]
[1]
  IC50: 1 ± 0.1 µM
[2]
  IC50: 7 ± 1.4 µM
[3]
  inhibition at 10 µM: 43.2 ± 4.7%
[5]
  Papp at 5 h, 200 μM: 1.59 ×10⁻⁶ cm/s

## Cn1c(=O)c2c(ncn2C)n(C)c1=O [caffeine, reference compound]
[5]; 200 μM in PBS pH 7.4, 5 h, room temperature
  Pe (PAMPA-BBB): 10.9 × 10^–6 cm s^–1
[5]
  Papp at 5 h, 200 μM: 10.9 ×10⁻⁶ cm/s

## COc1cc2c(cc1OC)C(=O)C(CC1CCN(Cc3ccccc3)CC1)C2 (stereo not shown) [donepezil, reference compound]
[3]
  inhibition at 10 µM: 10.9 ± 1.4%
[4]
  time taken by the animals to reach the platform, after the training (5th day): 15 s
  time taken by the animals to reach the platform, after treatment with the test compound/donepezil (11th day): 17 s
  time taken by the animals to reach the platform, after treatment with scopolamine (14th day): 10 s

## CCn1cc(C(=O)O)c(=O)c2cc(F)c(N3CCNCC3)cc21 [norfloxacin, reference compound]
[5]
  Papp at 5 h, 200 μM: 1.73 ×10⁻⁶ cm/s

## CN1[C@@H]2C[C@@H](OC(=O)[C@H](CO)c3ccccc3)C[C@H]1[C@@H]1O[C@@H]12 [scopolamine, reference compound]
[4]
  time taken by the animals to reach the platform, after treatment with scopolamine (14th day): 77 s
